In patent publication US5250546A, “Amino-alcohol derivatives and processes for their preparation” (Nippon Chemiphar Co., Ltd., priority 1984, dated 1993) one finds inhibition in vivo and inhibition data, which are given here for 26 compounds.

The term inhibition denotes the share of the control response that was lost under treatment.

Experiment [1] deals with anemic decerebrate rigidity (Wistar male rats). The experiment in a line: Effects on anemic decerebrate rigidity (EMG of M. triceps brachii). The class given is in vivo. The conditions noted are these: Rattus norvegicus, iv, 10 min, read-out: Suppression rate (rigidity, EMG pulse area).
Procedure: An anemic decerebrate rigidity sample was prepared principally in accordance with the procedure of Fukuda et al. [Japan. […] Wistar male rats (body weight: 270 to 350 g) were held on their backs and incised at their cervices under etherization. After the trachea and common carotid arteries were exposed, the trachea was cannulated and the bilateral common carotid arteries and esophagus were then double-ligated and cut. Thereafter, its occipital bone was exposed through which a circular hole was bored to double-ligate the centrally extending basilar artery. As each rat started coming out of anesthetization, its front limbs became rigid. Measurement was conducted by recording electromyographic (EMG) response from the muscle of the forelimb (M. triceps brachii) of the rat in the rigid state. The EMG pulses were converted to accumulated values every 10 seconds and recorded as a histogram on a recorder.
The effect of each test compound on the rigidity was evaluated in terms of the suppression rate. This rate was calculated first by determining the area of a decreased EMG pulse part on the histogram upon passage of 10 minutes after administration of a physiological saline solution of each test compound (3 mg/kg) through the femoral vein and then in accordance with the following equation.
A: EMG pulse area when no test compound was administered (control).
Experiment [2] relates to glutamic acid at neuromuscular junctions of crayfish (opener muscles of the first walking legs). Briefly: Blocking effects against glutamic acid at neuromuscular junctions of crayfish (L-glutamic acid-induced depolarization). The format is cell-based. The conditions noted are these: 5 min; suppression rate of depolarization by L-glutamic acid (10^-4 M); 5-minute pretreatment with test compound 2×10^-4 M.
Source text: The opener muscles of the first walking legs of crayfish were used as experimental materials. The neuromuscular sample was held in a bath in which a physiological solution [composition (mM): NaCl (195), CaCl2 (18), KCl (5.4), tris-maleate buffer (pH 7.5; 10), glucose (11)] for use with the crayfish was perfused at room temperature and at a constant flow rate. A glass micro-electrode filled with a 3M-KCl solution was inserted in a central part of the muscle fiber to intracellularly record changes in the potential of the muscular cell membrane.
The blocking effect of each test compound against glutamic acid was evaluated in terms of the suppression rate to depolarization which was induced by bath-applying L-glutamic acid (10^-4 M) in a 5-minute pretreatment with a solution of the test compound (2×10^-4 M).

Where a name gives a salt, the structure may show the parent alone. Read-outs that look alike come from different tables or passages of the source.

As for `C[C@H](NCCN1CCCC1)[C@H](O)c1ccccc1` (racemic) [Comparative compound 2, (1RS,2SR)-1-phenyl-2-(2-pyrrolidinoethylamino)propan-1-ol dihydrochloride, reference compound], the inhibition in vivo at 3 mg/kg in experiment [1] came out at 2.2%.

Consider `C[C@H](NCCN1CCOCC1)[C@H](O)c1ccccc1` (racemic) [Comparative compound 3, (1RS,2SR)-2-(2-morpholinoethylamino)-1-phenylpropan-1-ol dihydrochloride, reference compound], for which the inhibition in vivo at 3 mg/kg in experiment [1] amounted to 1%.

For `C[C@H](NCCN(C)C)[C@H](O)c1ccccc1` (racemic) [Comparative compound 4, (1RS,2SR)-2-(2-dimethylaminoethylamino)-1-phenylpropan-1-ol dihydrochloride, reference compound], in experiment [1], the inhibition in vivo at 3 mg/kg came to 1.1%.

Turning to `CCCCC[C@@H](NCCCN1CCCCC1)[C@H](O)c1ccccc1` (racemic) [Compound 6, (1RS,2RS)-1-phenyl-2-(3-piperidinopropylamino)heptan-1-ol dihydrochloride], the inhibition at 200 µM in experiment [2] was found to be 100%.

On to `CCCCCC[C@H](NCCCN1CCCCC1)[C@H](O)c1ccccc1` (racemic) [Compound 7, (1RS,2SR)-1-phenyl-2-(3-piperidinopropylamino)octan-1-ol dihydrochloride], for which the inhibition at 200 µM in experiment [2] turned out to be 98%.

With `CCCCCCCC[C@H](NCCCN1CCCCC1)[C@H](O)c1ccccc1` (racemic) [Compound 11, (1RS,2SR)-1-phenyl-2-(3-piperidinopropylamino)decan-1-ol dihydrochloride], the inhibition at 200 µM in experiment [2] stood at 100%.

Turning to `CC(C)C[C@H](NCCCN1CCCC1)[C@H](O)c1ccccc1` (racemic) [Compound 23, (1RS,2SR)-4-methyl-1-phenyl-2-(3-pyrrolidinopropylamino)pentan-1-ol dihydrochloride], the inhibition at 200 µM in experiment [2] was determined as 97%.

As for `CC(C)C[C@H](NCCCN1CCOCC1)[C@H](O)c1ccccc1` (racemic) [Compound 25, (1RS,2SR)-4-methyl-2-(3-morpholinopropylamino)-1-phenylpentan-1-ol dihydrochloride], in experiment [2], the inhibition at 200 µM came to 90%.

As to `CC(C)C[C@H](NCCCN(C)C)[C@H](O)c1ccccc1` (racemic) [Compound 27, (1RS,2SR)-2-(3-dimethylaminopropylamino)-4-methyl-1-phenylpentan-1-ol dihydrochloride], the inhibition at 200 µM in experiment [2] came out at 95%.

As to `CC(C)C[C@H](NCCN1CCCCC1)[C@H](O)c1ccccc1` (racemic) [Compound 29, (1RS,2SR)-4-methyl-1-phenyl-2-(2-piperidinoethylamino)pentan-1-ol dihydrochloride], the inhibition at 200 µM in experiment [2] was 93%.

As for `CC(C)C[C@H](NCCN1CCCC1)[C@H](O)c1ccccc1` (racemic) [Compound 31, (1RS,2SR)-4-methyl-1-phenyl-2-(2-pyrrolidinoethylamino)pentan-1-ol dihydrochloride], the inhibition at 200 µM in experiment [2] was 91%.

Consider `CC(C)CC[C@H](NCCCN1CCOCC1)[C@H](O)c1ccccc1` (racemic) [Compound 37, (1RS,2SR)-5-methyl-2-(3-morpholinopropylamino)-1-phenylhexan-1-ol dihydrochloride], for which the inhibition at 200 µM in experiment [2] turned out to be 99%.

In the case of `CC(C)CC[C@H](NCCCN(C)C)[C@H](O)c1ccccc1` (racemic) [Compound 39, (1RS,2SR)-2-(3-dimethylaminopropylamino)-5-methyl-1-phenylhexan-1-ol dihydrochloride], the inhibition at 200 µM in experiment [2] was 100%.

Take `Cc1ccccc1[C@@H](O)[C@H](CC(C)C)NCCCN1CCCCC1` (racemic) [Compound 47, (1RS,2SR)-4-methyl-1-(2-methylphenyl)-2-(3-piperidinopropylamino)pentan-1-ol dihydrochloride]: the inhibition at 200 µM in experiment [2] turned out to be 100%.

`Cc1cccc([C@@H](O)[C@H](CC(C)C)NCCCN2CCCCC2)c1` (racemic) [Compound 49, (1RS,2SR)-4-methyl-1-(3-methylphenyl)-2-(3-piperidinopropylamino)pentan-1-ol dihydrochloride]: the inhibition at 200 µM in experiment [2] was 100%.

Consider `Cc1ccc([C@@H](O)[C@H](CC(C)C)NCCCN2CCCCC2)cc1` (racemic) [Compound 51, (1RS,2SR)-4-methyl-1-(4-methylphenyl)-2-(3-piperidinopropylamino)pentan-1-ol dihydrochloride], for which the inhibition at 200 µM in experiment [2] is 100%.

On to `COc1ccc([C@@H](O)[C@H](CC(C)C)NCCCN2CCCCC2)cc1` (racemic) [Compound 53, (1RS,2SR)-1-(4-methoxyphenyl)-4-methyl-2-(3-piperidinopropylamino)pentan-1-ol dihydrochloride], for which, in experiment [2], the inhibition at 200 µM was found to be 91%.

Regarding `CC(C)C[C@H](NCCCN1CCCCC1)[C@H](O)c1ccc(F)cc1` (racemic) [Compound 55, (1RS,2SR)-1-(4-fluorophenyl)-4-methyl-2-(3-piperidinopropylamino)pentan-1-ol dihydrochloride], the inhibition at 200 µM in experiment [2] was 99%.

Consider `CC(C)C[C@H](NCCCN1CCCCC1)[C@H](O)c1ccc(Cl)cc1` (racemic) [Compound 57, (1RS,2SR)-1-(4-chlorophenyl)-4-methyl-2-(3-piperidinopropylamino)pentan-1-ol dihydrochloride], for which, in experiment [2], the inhibition at 200 µM amounted to 99%.

As for `CC(C)C[C@@H](NCCCN1CCCCC1)[C@H](O)c1ccc(Cl)cc1` (racemic) [Compound 58, (1RS,2RS)-1-(4-chlorophenyl)-4-methyl-2-(3-piperidinopropylamino)pentan-1-ol dihydrochloride], the inhibition at 200 µM in experiment [2] is 97%.

Consider `CO[C@H](c1ccccc1)[C@H](CCC(C)C)NCCCN1CCCCC1` (racemic) [Compound 59, (1RS,2SR)-5-methyl-1-phenyl-2-(3-piperidinopropylamino)hexan-1-ol methylether dihydrochloride], for which the inhibition at 200 µM in experiment [2] turned out to be 97%.

Consider `CCN(CCCN1CCCCC1)[C@@H](CCC(C)C)[C@H](O)c1ccccc1` (racemic) [Compound 65, (1RS,2SR)-2-[ethyl-(3-piperidinopropyl)amino]-5-methyl-1-phenylhexan-1-ol dihydrochloride], for which the inhibition at 200 µM in experiment [2] was found to be 99%.

For the compound `Cc1ccc([C@@H](O)[C@@H](CC(C)C)NCCCN2CCCCC2)cc1` (relative stereo) [Compound 52, (1RS,2RS)-4-methyl-1-(4-methylphenyl)-2-(3-piperidinopropylamino)pentan-1-ol dihyrochloride], the inhibition at 200 µM in experiment [2] is 93%.

Regarding `Cc1ccc(C(=O)C(C)CN2CCCCC2)cc1` (centres unmarked) [Comparative compound 5, tolperisone hydrochloride, reference compound], the inhibition in vivo at 3 mg/kg in experiment [1] (3 mg/kg through the femoral vein, 10 minutes after administration) was found to be 4.8%.

As to `CC(C)C[C@@H](NCCCN1CCCCC1)[C@@H](O)c1ccccc1` [Compound 18, (1S,2R)-4-methyl-1-phenyl-2-(3-piperidinopropylamino)pentan-1-ol dihydrochloride], the inhibition at 200 µM in experiment [2] was found to be 97%.

For `CC(C)C[C@@H](NCCCN1CCCCC1)[C@H](O)c1ccccc1` [Compound 20, (1R,2R)-4-methyl-1-phenyl-2-(3-piperidinopropylamino)pentan-1-ol dihydrochloride], the inhibition at 200 µM in experiment [2] stood at 98%.
